Results from patent publication US10167299B2, “1-(3-aminopropyl) substituted cyclic amine compounds, preparation method therefor, and pharmaceutical compositions and uses thereof” (SHANGHAI INSTITUTE OF MATERIA MEDICA, CHINESE ACADEMY OF …, priority 2013, dated 2019).
Converted amounts (≈) assume the structure as drawn.

Key:
CCR5 = CCR5 (Homo sapiens (Human), UniProt P51681); experiment: Calcium flux inhibition experiment; assay type: cell-based; details: for IC50: HEK293/CCR5-Gα16 cell line, calcium flux, read-out: CCR5 IC50; for calcium influx inhibition effect in words, versus positive control compounds: conclusion from Table 1
TZM-bl cells = experiment: Cytotoxicity (CC50) in TZM-bl cells; assay type: cell-based; details: TZM-bl cells (Table 3)
HIV-1SF162 virus strain [1] = experiment: Inhibition activity on TZM-bl cells infected with HIV-1SF162
CCR5 protein = experiment: Thermal stability of protein test (CPM-assay); assay type: binding; details: for Tm (° C.): thermal stability of CCR5 protein with compound, CPM dye
Excerpt: Experimental theory: many cysteines are present in CCR5 protein sequence. Cysteines located in loop region form disulfide bonds to stabilize the tertiary structure of the protein. Some free cysteines in reduced state are located in the transmembrane region. Under excitation by incident light of 387 nm, the combination of free sulfhydryl and fluorescent dye CPM can emit excitation light of 436 nm. […] The free sulfhydryls originally located in the transmembrane region expose and combine with the fluorescent dye. And then the detector will detect changes in signal enhancement. Therefore, the thermal stability of membrane proteins can be determined according to the temperature (Tm) at the midpoint of changes in signal intensity.
Experimental steps: Upon preliminary purification, the obtained protein solution was transferred into a small concentration tube (100 kd, 500 ul) for concentration (1000 rcf, 12 min, 4° C.). After centrifugation, the concentration tube was taken out and flicked to prevent protein coagulation due to high local concentration. The final concentrated volume was about 50 μl. 117 μl of purified solution (volume is suitable to make the total volume up to 120 μl), 1 μl fluorescent dye cpm (in-house prepared) and 2 μl of concentrated protein solution (the amount of added protein is 3-5 μg according to the calculated concentration of the protein solution and the concentrated volume) were added to 2 ml Ependorf tube and incubated at room temperature for 20 min. And then the mixture was added to the cuvette (Qwan) and put in the testing equipment Cary, wherein the surface of the frosted glass faced out. The temperature was set in the range of 4-90° C. with 1° C. increase per minute and the program was run. Tm value can be obtained by processing the data and graph with a mapping software and can be used to compare the difference of protein thermal stability under different conditions.

[2] = Cytotoxicity (CC50) in TZM-bl cells; assay type: cell-based; details: human; TZM-bl cells (Table 3); read-out: CC50
CYP1A2 = CYP1A2 (Homo sapiens (Human), UniProt P05177); experiment: CYP450 inhibition activity assay (Vivid kit) CYP1A2; assay type: in vitro ADME; details: CYP450 subtype (μM) 1A2 (IC50)
Method: (§5) VividR CYP450 Screening Kits can be used to evaluate the effects on CYP450 subtypes (CYP1A2, CYP2D6, CYP2C9, CYP2C19, CYP3A4-T and CYP3A4-M) and the substrate VividR in the kit can be metabolizd to a product which can emit strong fluorescence in an aqueous solution by specific CYP450 enzymes.
(§6) The compounds to be tested and positive compound were added to corresponding wells and DMSO was added to control wells.
(§7) CYP450 enzyme was added to the compounds to be tested, positive compound and DMSO control wells. The enzyme dilution was used to replace enzyme and added to DMSO wells as test background. The mixture was vibrated and mixed for 1 minute, and then incubated at room temperature for 20 minutes.
(§8) NADP^+ regeneration system and the substrate were added to initiate the reaction and incubated at room temperature for 60 minutes.

CYP2C9 = CYP2C9 (Homo sapiens (Human), UniProt P11712); experiment: CYP450 inhibition activity assay (Vivid kit) CYP2C9; assay type: in vitro ADME; details: CYP450 subtype (μM) 2C9 (IC50)
Method: as §5, §6, §7, §8

CYP2C19 = CYP2C19 (Homo sapiens (Human), UniProt P33261); experiment: CYP450 inhibition activity assay (Vivid kit) CYP2C19; assay type: in vitro ADME; details: CYP450 subtype (μM) 2C19 (IC50)
Method: as §5, §6, §7, §8

CYP2D6 = CYP2D6 (Homo sapiens (Human), UniProt P10635); experiment: CYP450 inhibition activity assay (Vivid kit) CYP2D6; assay type: in vitro ADME; details: CYP450 subtype (μM) 2D6 (IC50)
[3] = marketed drug, literature value, species not stated; cited from earlier work
HIV-1SF162 virus strain [4] = experiment: Inhibition of viral replication in PBMC infected with HIV-1SF162; assay type: cell-based
Method: (§1) The virus was titrated according to the modified method of Johnson & Byington. Briefly, the HIV-1 stock solution was subject to four-fold dilution in a 96-well plate (ten gradients) sextuplicate for each gradient, while setting six control-wells. Into each well was added 100 μl (5×10^6/ml) PHA-stimulated PBMC cells and final volume per well was 200 μl. The cells were cultured at 37° C. with 5% CO2. […] On the seventh day, the infected supernatant was collected and lysed with 0.5% Triton X100. The p24 antigen was detected by ELISA and TCID50 of virus was calculated according to Reed & Muench method (50% Tissue culture infection dose).
(§2) The starting concentration was 1 μM, six dilutions were obtained, and each well contained 200 μl mixture. While wells not containing drugs were set as control. […] After homogeneously mixed, the mixture was immediately added to 48-well plate containing diluted drug and each well was added with 200 μl of mixture. MVC was used as positive control. The cells were cultured at 37° C. with 5% CO2 for seven days (drug with the same concentration was added on the third day). The supernatant was collected, lysed and inactivated with 0.5% Triton X-100. The inhibition effect of drug on HIV-1 replication was detected using p24 antigen capture ELISA method.

HIV-1KM018 virus strain = experiment: Inhibition of viral replication in PBMC infected with HIV-1KM018; assay type: cell-based; details: Human immunodeficiency virus 1, PBMC
Method: as §1, §2

HIV-1Ba-L virus strain [5] = experiment: Inhibition of viral replication in PBMC infected with HIV-1Ba-L; assay type: cell-based
Method: The virus was titrated according to the modified method of Johnson & Byington. Briefly, the HIV-1 stock solution was subject to four-fold dilution in a 96-well plate (ten gradients) sextuplicate for each gradient, while setting six control-wells. Into each well was added 100 μl (5×10^6/ml) PHA-stimulated PBMC cells and final volume per well was 200 μl. The cells were cultured at 37° C. with 5% CO2. On the third day, 100 μl of fresh RPMI-1640 complete medium was supplemented. On the seventh day, the infected supernatant was collected and lysed with 0.5% Triton X100. The p24 antigen was detected by ELISA and TCID50 of virus was calculated according to Reed & Muench method (50% Tissue culture infection dose).
The compound to be tested was subject to 5-fold dilution in 48-well plate with RPMI-1640 complete medium (containing 10% FBS). The starting concentration was 1 μM, six dilutions were obtained, and each well contained 200 μl mixture. While wells not containing drugs were set as control. Virus (MOI=0.01) was added to 5×10^6/ml of PBMC cells which have been stimulated by PHA for 72 h. After homogeneously mixed, the mixture was immediately added to 48-well plate containing diluted drug and each well was added with 200 μl of mixture. MVC was used as positive control. The cells were cultured at 37° C. with 5% CO2 for seven days (drug with the same concentration was added on the third day). The supernatant was collected, lysed and inactivated with 0.5% Triton X-100. The inhibition effect of drug on HIV-1 replication was detected using p24 antigen capture ELISA method.

[6] = Toxicity test of compounds on PBMC cells (MTT); assay type: cell-based; details: human; PBMC cells (Table 4)
Method: (§3) The compound to be tested was subject to 5-fold dilution in a 96-well microtiter plate with RPMI-1640 or DMEM complete medium (containing 10% FBS) (Six dilution) triplicate for each dilution and 100 μl for each well. While wells not containing drugs were set as control. Into each well was added 100 μl of 4×10^5/ml PM1, HOS-CD4-CCR5 cells or 100 μl of 5×10^6/ml PHA stimulated PBMC. The cells were cultured at 37° C. with 5% CO2 for three days (PBMC cells were cultured for seven days and 100 μl of fresh RPMI-1640 complete medium was supplemented on the third day). Cytotoxicity was tested with MTT assay. OD values were measured by ELx800 microplate reader. The detection wavelength was 570 nm, and the reference wavelength was 630 nm.

HIV-1Ba-L virus strain [7] = experiment: Inhibition of viral replication in HOS-CD4-CCR5 cells infected with HIV-1Ba-L; assay type: cell-based
Method: (§4) On the day before the test, 1×10^5/ml of HOS-CD4-CCR5 cells were inoculated in 96-well plates with 100 μl for each well. The compound to be tested was subject to 5-fold dilution in 96-well microtiter plate with DMEM complete medium (containing 10% FBS). The starting concentration was 1 μM and six dilutions were obtained. Triplicate wells were set for each dilution and each well contained 100 μl mixture. While wells not containing drugs were set as control. The supernatant was removed and 100 μl of drug was added and incubated for 2 h. Then 100 μl of HIV-1SF162 and HIV-1Ba-L were added to dilute supernatant. The cells were infected for 1 h, free virus was washed out and drug with the same final concentration was added. MVC was used as positive control. The cells were cultured at 37° C. with 5% CO2 for three days. The supernatant was collected, lysed and inactivated with 0.5% Triton X-100. The inhibition effect of drug on HIV-1 replication was detected using p24 antigen capture ELISA method.

HIV-1SF162 virus strain [8] = experiment: Inhibition of viral replication in HOS-CD4-CCR5 cells infected with HIV-1SF162; assay type: cell-based; details: Human immunodeficiency virus 1, HOS-CD4-CCR5
Method: as §4

[9] = Toxicity test of compounds on HOS-CD4-CCR5 cells (MTT); assay type: cell-based; details: human; HOS-CD4+-CCR5 cells (Table 7)
Method: as §3

hERG = hERG (Homo sapiens (Human), UniProt Q12809)
Method: CHO-hERG cells which have been incubated overnight were added with sample buffer and incubated for 90 minutes at room temperature in darkness.
The sample buffer was removed and assay buffer was added.
The compound is added to the cell plate and incubated for 20 minutes in darkness.
Cell plate was placed into FDSS. The fluorescence signal was recorded every second for 10 seconds. Exciting buffer was added to the cells at the 10th second and the fluorescence signal was recorded every second for 180 seconds

[10] = TZM-bl cells infected with HIV-1SF162
[11] = Human immunodeficiency virus 1, TZM-bl
[12] = Human immunodeficiency virus 1, PBMC

Sequence of CCR5 (P51681 whole entry): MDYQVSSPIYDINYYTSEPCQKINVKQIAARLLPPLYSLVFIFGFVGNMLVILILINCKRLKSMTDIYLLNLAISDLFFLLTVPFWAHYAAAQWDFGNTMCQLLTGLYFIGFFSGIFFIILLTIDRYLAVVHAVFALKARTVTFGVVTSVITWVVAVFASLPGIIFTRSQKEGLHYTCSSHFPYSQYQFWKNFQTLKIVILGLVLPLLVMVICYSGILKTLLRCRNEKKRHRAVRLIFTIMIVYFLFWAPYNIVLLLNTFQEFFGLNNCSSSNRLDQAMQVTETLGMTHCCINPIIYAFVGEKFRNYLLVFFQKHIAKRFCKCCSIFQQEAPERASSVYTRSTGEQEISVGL
Sequence of hERG (Q12809 whole entry): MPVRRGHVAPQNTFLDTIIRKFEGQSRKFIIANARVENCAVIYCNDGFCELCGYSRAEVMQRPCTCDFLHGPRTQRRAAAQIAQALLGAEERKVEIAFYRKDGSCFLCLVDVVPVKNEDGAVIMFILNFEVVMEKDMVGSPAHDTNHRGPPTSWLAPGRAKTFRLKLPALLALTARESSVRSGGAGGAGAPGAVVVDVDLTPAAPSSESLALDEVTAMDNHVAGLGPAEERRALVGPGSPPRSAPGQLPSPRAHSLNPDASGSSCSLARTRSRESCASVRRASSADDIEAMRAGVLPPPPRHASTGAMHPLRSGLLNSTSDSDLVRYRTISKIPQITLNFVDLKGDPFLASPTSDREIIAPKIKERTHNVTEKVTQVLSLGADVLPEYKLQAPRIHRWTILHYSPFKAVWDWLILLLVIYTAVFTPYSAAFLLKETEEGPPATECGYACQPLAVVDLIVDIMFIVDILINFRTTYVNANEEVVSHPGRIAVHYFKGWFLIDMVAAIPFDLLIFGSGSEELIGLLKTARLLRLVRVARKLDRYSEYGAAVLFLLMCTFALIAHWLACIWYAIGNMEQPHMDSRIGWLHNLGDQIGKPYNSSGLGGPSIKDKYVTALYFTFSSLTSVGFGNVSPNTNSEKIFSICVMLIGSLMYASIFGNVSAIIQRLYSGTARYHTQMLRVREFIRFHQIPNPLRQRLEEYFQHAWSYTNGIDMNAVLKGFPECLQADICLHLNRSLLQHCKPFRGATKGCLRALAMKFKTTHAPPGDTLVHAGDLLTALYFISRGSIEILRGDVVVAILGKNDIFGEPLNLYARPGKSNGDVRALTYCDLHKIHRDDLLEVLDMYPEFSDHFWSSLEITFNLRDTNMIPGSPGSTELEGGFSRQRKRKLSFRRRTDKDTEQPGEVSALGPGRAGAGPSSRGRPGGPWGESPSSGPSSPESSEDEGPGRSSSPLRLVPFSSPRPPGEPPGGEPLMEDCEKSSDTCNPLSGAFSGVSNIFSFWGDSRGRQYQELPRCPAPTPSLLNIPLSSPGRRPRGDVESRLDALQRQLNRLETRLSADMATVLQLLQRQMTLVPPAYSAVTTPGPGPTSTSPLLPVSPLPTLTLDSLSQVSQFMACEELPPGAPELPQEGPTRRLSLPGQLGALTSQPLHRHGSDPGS
Sequence of CYP2C19 (P33261 whole entry): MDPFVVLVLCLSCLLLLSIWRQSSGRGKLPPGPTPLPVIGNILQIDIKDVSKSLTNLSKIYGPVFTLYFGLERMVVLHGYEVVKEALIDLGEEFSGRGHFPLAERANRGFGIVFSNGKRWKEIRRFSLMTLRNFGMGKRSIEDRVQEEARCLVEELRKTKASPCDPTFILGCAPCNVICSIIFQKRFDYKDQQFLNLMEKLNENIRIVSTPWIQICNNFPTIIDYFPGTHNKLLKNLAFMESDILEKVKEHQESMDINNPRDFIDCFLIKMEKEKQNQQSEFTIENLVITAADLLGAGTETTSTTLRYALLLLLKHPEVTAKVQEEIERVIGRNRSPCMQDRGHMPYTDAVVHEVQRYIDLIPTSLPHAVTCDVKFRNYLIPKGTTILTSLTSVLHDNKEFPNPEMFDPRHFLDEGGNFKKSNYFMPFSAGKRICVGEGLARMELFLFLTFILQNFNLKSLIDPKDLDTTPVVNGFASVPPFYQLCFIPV
Sequence of CYP2D6 (P10635 whole entry): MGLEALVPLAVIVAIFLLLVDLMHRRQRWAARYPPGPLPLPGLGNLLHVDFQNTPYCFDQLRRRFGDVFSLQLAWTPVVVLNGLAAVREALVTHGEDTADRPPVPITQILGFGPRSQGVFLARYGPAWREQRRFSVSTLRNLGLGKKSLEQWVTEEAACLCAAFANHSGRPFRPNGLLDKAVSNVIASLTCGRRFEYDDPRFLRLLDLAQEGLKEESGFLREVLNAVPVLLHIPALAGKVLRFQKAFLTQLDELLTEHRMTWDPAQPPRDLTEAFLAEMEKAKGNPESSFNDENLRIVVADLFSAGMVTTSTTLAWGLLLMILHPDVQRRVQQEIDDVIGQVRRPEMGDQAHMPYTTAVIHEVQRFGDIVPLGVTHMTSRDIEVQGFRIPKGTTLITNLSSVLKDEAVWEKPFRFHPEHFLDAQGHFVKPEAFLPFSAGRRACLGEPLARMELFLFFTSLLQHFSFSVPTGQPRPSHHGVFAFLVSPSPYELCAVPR
Sequence of CYP1A2 (P05177 whole entry): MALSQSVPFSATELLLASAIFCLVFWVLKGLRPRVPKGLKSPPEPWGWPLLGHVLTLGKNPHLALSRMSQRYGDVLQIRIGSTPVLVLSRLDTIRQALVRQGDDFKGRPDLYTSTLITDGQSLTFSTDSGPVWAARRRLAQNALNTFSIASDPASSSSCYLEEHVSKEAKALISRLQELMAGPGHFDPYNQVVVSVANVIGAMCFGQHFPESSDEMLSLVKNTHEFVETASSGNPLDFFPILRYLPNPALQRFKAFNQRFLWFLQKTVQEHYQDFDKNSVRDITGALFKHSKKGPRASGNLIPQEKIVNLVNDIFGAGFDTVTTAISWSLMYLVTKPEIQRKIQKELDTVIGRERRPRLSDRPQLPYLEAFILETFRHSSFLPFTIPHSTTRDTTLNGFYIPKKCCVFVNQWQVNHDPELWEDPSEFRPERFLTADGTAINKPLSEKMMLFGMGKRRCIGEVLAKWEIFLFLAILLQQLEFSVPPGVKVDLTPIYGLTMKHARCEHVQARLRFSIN
Sequence of CYP2C9 (P11712 whole entry): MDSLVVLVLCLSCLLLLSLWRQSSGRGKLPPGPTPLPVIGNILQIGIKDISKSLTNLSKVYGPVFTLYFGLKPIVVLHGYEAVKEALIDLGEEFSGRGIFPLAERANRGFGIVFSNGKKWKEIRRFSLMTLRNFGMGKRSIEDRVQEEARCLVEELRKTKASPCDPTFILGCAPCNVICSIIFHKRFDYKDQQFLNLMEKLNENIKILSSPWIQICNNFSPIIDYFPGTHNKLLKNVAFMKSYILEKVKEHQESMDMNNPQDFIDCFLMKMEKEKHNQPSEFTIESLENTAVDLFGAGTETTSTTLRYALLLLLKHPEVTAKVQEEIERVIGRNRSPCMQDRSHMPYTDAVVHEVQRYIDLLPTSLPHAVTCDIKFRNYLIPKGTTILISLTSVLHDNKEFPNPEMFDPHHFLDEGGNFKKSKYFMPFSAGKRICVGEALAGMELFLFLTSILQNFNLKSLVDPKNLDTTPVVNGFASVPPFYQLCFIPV

## Cc1nnc(C(C)C)n1[C@@H]1C[C@H]2CC[C@@H](C1)N2CC[C@H](NC(=O)C1CCC(F)(F)CC1)c1cccc(F)n1 [Compound 34, 4,4-difluoro-N-[(1S)-3-[exo-3-(3-isopropyl-5-methyl-4H-1,2,4-triazol-4-yl)-8-azabicyclo[3.2.1]octane-8-yl]-1-(6-fluoropyridin-2-yl)propyl]cyclohexane-1-carboxamide]
CCR5
  IC50: 0.143 µM
TZM-bl cells
  CC50: >200 µg/mL
HIV-1SF162 virus strain [1]; [10]
  EC50: >40 µg/mL

## Cc1nnc(C(C)C)n1[C@@H]1C[C@H]2CC[C@@H](C1)N2CC[C@H](NC(=O)C1CCC(F)(F)CC1)c1ccccc1 [Maraviroc, reference compound]
CCR5 protein
  Tm (° C.): 72.17 °C
[2]
  CC50: > 200 µg/mL
CYP1A2
  IC50: > 25 µM
CYP2C9
  IC50: 14.4 µM
CYP2C19
  IC50: > 25 µM
CYP2D6
  IC50: > 25 µM
[3]
  bioavailability as reported: 5%
HIV-1SF162 virus strain [1]; [11]
  EC50: 0.00814 µg/mL (≈ 0.0158 µM)

## 4,4-difluoro-N-[(1S)-3-[exo-3-(3-isopropyl-5-methyl-4H-1,2,4-triazol-4-yl)-8-azabicyclo[3.2.1]octane-8-yl]-1-(pyridin-3-yl)propyl]cyclohexane-1-carboxamide [Compound 6]
CCR5
  IC50: 0.0069 µM
  calcium influx inhibition effect in words, versus positive control compounds: better than the positive control compounds
CCR5 protein
  Tm (° C.): 58.56 °C
TZM-bl cells
  CC50: >100 µg/mL
HIV-1SF162 virus strain [1]; [10]
  EC50: 1.51 µg/mL
  therapeutic index (TI): 66.23

## Cc1nnc(C(C)C)n1C1CC2CCC(C1)N2CCC(NC(=O)C1CCC(F)(F)CC1)c1cccs1 (stereo not drawn) [Compound 3, 4,4-difluoro-N-[3-[exo-3-(3-isopropyl-5-methyl-4H-1,2,4-triazol-4-yl)-8-azabicyclo[3.2.1]octane-8-yl]-1-(thiophen-2-yl)propyl]cyclohexane-1-carboxamide]
[2]
  CC50 at 3 days: > 100 µg/mL
HIV-1SF162 virus strain [4]; [12]
  EC50: 0.146 µg/mL (≈ 0.281 µM)
HIV-1SF162 virus strain [4]; PBMC cells infected with HIV-1SF162
  therapeutic index (TI): 1874
HIV-1KM018 virus strain
  EC50: 0.0157 µg/mL (≈ 0.0301 µM)
HIV-1Ba-L virus strain [5]; [12]
  EC50: 0.0912 µg/mL (≈ 0.176 µM)
HIV-1Ba-L virus strain [5]; PBMC cells infected with HIV-1Ba-L
  therapeutic index (TI): 3328.9
[6]
  CC50 at 7 days: 273 µg/mL (≈ 526 µM)
HIV-1Ba-L virus strain [7]; HOS-CD4+-CCR5 cells infected with HIV-1Ba-L
  therapeutic index (TI): 19495
HIV-1Ba-L virus strain [7]; Human immunodeficiency virus 1, HOS-CD4-CCR5
  EC50: 0.0171 µg/mL (≈ 0.033 µM)
HIV-1SF162 virus strain [8]
  EC50: 0.0244 µg/mL (≈ 0.047 µM)
[9]
  CC50 at 3 days: 334 µg/mL (≈ 643 µM)
HIV-1SF162 virus strain [1]; [11]
  EC50: 0.0024 µg/mL (≈ 0.00462 µM)
HIV-1SF162 virus strain [1]; [10]
  therapeutic index (TI): >41666.67
HIV-1SF162 virus strain [1]; TZM-bl cells infected with HIV-1SF162, conclusion from Table 3
  cytotoxicity in vitro and therapeutic index in words, versus positive control compound: better than positive control compound

## 4-ethyl-N-[(1S)-3-[exo-3-(3-isopropyl-5-methyl-4H-1,2,4-triazol-4-yl)-8-azabicyclo[3.2.1]octane-8-yl]-1-(thiophen-3-yl)propyl]cyclopentane-1-carboxamide [Compound 20]
CCR5
  IC50: 0.00514 µM
  calcium influx inhibition effect in words, versus positive control compounds: better than the positive control compounds
CCR5 protein; conclusion from Table 2
  protein stability effect in words, versus positive control compound: comparable with the positive control compound
CCR5 protein
  Tm (° C.): 70.27 °C
TZM-bl cells
  CC50: 69.68 µg/mL
hERG
  IC50: 14.4 µM
  hERG inhibition activity in words, versus positive control compounds: better that those of positive control compounds
HIV-1SF162 virus strain [1]; [10]
  EC50: 0.00487 µg/mL
  therapeutic index (TI): 14308.01
